One compound from patent US20230117777A1, “METHYLATION OF MCL-1 COMPOUNDS” (Amgen Inc., priority 2020, published 2023) can be followed below.

The data set can be described thus: Moisture sorption profile (DVS). The data set is classed as physicochemical. To be noted: by 95% RH; FIG. 6. On the procedure:
Moisture Sorption: Moisture sorption data was collected using a Surface Measurement Systems DVSAdvantage instrument. Equilibrium criteria were set at ±0.001% weight change in 10 minutes with a maximum equilibrium time of 360 minutes.

On to `CO[C@]1(CN2CCN3CCCC[C@@H]3C2)/C=C/C[C@H](C)[C@@H](C)S(=O)(=O)NC(=O)c2ccc3c(c2)N(C[C@@H]2CC[C@H]21)C[C@@]1(CCCc2cc(Cl)ccc21)CO3` [crystalline hydrate form of compound A], for which the “weight gain (moisture sorption profile)” value is 3.3%.
